Test results published in ChEMBL document CHEMBL5126595, “Identification and anti-tumor evaluation of 3-acyl-indol-based 2,4-diarylaminopyrimidine analogues as potent ALK inhibitors capable of overcoming drug-resistant mutants” (Eur J Med Chem, 2022).
Activity calls are given as the source filed them. The rule behind the calls is not given here.

Experiments:
NCI-H2228 [1] = test: Induction of apoptosis in human NCI-H2228 cells assessed as late apoptotic cells at 25 nM incubated for 48 hrs by AnnexinV-FITC/propidium iodide staining based flow cytometry analysis (reference value: 4.72 %); type: functional
NCI-H2228 [2] = test: Induction of cell cycle arrest in human NCI-H2228 cells assessed as increase in G1 phase cells at 25 nM incubated for 48 hrs by PI/RNase staining based flow cytometry analysis (reference value: 49.72 %); type: functional
[3] = MRT in Sprague-Dawley rat at 10 mg/kg, po by LC-MS/MS analysis; type: ADME, organism-based; conditions: in vivo
PC-3 = test: Antiproliferative activity against human PC-3 cells assessed as inhibition of cell growth incubated for 72 hrs by MTT assay; type: functional, cell-based; conditions: PC-3, 72 h
[4] = Metabolic stability in Sprague-Dawley rat liver microsomes assessed as half-life at 10 uM preincubated for 5 mins in the presence of NADPH followed by microsomal addition and measured upto 60 mins by HPLC analysis; type: ADME, Microsome; conditions: time < 65 min
NCI-H2228 [5] = test: Induction of apoptosis in human NCI-H2228 cells assessed as necrotic cells at 100 nM incubated for 48 hrs by AnnexinV-FITC/propidium iodide staining based flow cytometry analysis (reference value: 0.55 %); type: functional
[6] = Potency index, ratio of test compound IC50 to ceritinib IC50 antiproliferative activity […] EML4-ALK-G1202R cells assessed as inhibition of cell growth incubated for 72 hrs by MTT assay; type: functional
[7] = Volume of distribution at steady state in Sprague-Dawley rat at 2 mg/kg, iv by LC-MS/MS analysis; type: ADME, organism-based; conditions: in vivo, read-out: Vdss
NCI-H2228 [8] = test: Inhibition of cell migration in human NCI-H2228 cells measured at 24 to 48 hrs by inverted microscopic based cell scratch assay; type: functional; conditions: dose 2.5-10 nM, time 24-48 hrs, DDE = dose-dependent effect
[9] = target: T1, ALK tyrosine kinase receptor (Homo sapiens, UniProt Q9UM73); test: Inhibition of ALK downstream signalling in human NCI-H2228 cells assessed as reduction in phosphorylated AKT level measured after 24 hrs by Western blot analysis; type: cell-based; conditions: dose 25-100 nM, DDE = dose-dependent effect
T1 sequence (Q9UM73 19-1620 limits assumed): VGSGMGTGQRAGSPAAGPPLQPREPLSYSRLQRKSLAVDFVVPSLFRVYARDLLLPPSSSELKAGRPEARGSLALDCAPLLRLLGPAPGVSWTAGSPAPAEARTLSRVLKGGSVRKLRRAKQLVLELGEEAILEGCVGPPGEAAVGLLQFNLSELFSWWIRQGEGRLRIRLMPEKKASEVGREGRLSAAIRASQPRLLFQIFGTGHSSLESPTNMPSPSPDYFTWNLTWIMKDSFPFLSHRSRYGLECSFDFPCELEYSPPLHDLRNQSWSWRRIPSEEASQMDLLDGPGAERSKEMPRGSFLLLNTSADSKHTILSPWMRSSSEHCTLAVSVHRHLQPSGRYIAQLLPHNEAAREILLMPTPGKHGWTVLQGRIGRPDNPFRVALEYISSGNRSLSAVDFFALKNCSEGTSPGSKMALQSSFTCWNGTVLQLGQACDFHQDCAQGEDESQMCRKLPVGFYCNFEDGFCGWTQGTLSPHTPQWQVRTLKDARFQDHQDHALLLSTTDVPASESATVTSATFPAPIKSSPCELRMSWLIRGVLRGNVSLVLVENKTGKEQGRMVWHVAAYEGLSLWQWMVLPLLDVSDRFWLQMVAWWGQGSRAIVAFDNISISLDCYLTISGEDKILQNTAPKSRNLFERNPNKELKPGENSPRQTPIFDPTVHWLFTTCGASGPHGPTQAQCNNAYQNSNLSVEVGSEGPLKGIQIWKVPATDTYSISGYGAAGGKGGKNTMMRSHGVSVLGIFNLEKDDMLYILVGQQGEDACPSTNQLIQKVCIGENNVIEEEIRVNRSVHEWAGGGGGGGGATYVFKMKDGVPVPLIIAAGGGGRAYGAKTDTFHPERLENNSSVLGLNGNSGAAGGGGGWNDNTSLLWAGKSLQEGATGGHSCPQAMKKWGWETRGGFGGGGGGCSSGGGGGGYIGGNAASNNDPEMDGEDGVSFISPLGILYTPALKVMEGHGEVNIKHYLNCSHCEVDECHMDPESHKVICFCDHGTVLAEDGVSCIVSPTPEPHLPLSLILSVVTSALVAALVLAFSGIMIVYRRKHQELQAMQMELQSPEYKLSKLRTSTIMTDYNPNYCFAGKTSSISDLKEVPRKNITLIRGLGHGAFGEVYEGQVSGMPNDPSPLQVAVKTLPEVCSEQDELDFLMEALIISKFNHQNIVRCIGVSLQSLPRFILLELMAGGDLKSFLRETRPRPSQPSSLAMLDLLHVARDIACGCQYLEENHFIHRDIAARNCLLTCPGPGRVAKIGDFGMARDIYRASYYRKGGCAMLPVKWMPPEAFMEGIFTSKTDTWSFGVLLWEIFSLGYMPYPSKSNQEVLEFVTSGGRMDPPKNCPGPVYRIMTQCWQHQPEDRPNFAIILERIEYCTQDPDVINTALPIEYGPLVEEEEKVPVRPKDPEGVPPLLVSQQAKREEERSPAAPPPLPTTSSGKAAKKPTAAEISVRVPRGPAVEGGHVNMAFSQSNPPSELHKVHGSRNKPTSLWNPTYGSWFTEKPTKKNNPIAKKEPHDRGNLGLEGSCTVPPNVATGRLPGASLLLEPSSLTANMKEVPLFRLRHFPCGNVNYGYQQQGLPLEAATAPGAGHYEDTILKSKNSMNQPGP

[10] = Antiproliferative activity […] EML4-ALK cells assessed as inhibition of cell growth incubated for 72 hrs by MTT assay; type: functional, cell-based
MDA-MB-231 = test: cells; conditions: Homo sapiens, MDA-MB-231, 72 h
[11] = AUC (0 to infinity) in Sprague-Dawley rat at 2 mg/kg, iv by LC-MS/MS analysis; type: ADME, organism-based; design: time infinity, dose 2 mg/kg, route iv; conditions: in vivo
[12] = Cmax in Sprague-Dawley rat at 10 mg/kg, po by LC-MS/MS analysis; type: ADME, organism-based; design: dose 10 mg/kg, route po; conditions: in vivo
[13] = target: T1, ALK tyrosine kinase receptor; test: Inhibition of ALK downstream signalling in human NCI-H2228 cells assessed as reduction in phosphorylated ERK level measured after 24 hrs by Western blot analysis; type: cell-based; conditions: dose 25-100 nM, DDE = dose-dependent effect
[14] = target: T1, ALK tyrosine kinase receptor; test: Inhibition of ALK phosphorylation in human NCI-H2228 cells measured after 24 hrs by Western blot analysis; type: cell-based; conditions: dose 25-100 nM, DDE = dose-dependent effect
[15] = Antiproliferative activity against human HELF cells assessed as inhibition of cell growth incubated for 72 hrs by MTT assay; type: toxicity, cell-based
NCI-H2228 [16] = test: Induction of apoptosis in human NCI-H2228 cells assessed as early apoptotic cells by measuring bright green fluorescence at 25 nM incubated for 48 hrs by AO/EB staining based fluorescence microscopic analysis; type: functional, cell-based
[17] = MRT in Sprague-Dawley rat at 2 mg/kg, iv by LC-MS/MS analysis; type: ADME, organism-based; conditions: in vivo
NCI-H2228 [18] = test: Inhibition of cell migration in human NCI-H2228 cells at 2.5 to 10 nM by inverted microscopic based cell scratch assay; type: functional; conditions: dose 2.5-10 nM, time 24-48 hrs, TDE = time-dependent effect
NCI-H2228 [19] = test: Induction of apoptosis in human NCI-H2228 cells assessed as late apoptotic cells at 50 nM incubated for 48 hrs by AnnexinV-FITC/propidium iodide staining based flow cytometry analysis (reference value: 4.72 %); type: functional
[20] = Metabolic stability in Sprague-Dawley rat liver microsomes assessed as parent compound remaining measured upto 60 mins by HPLC analysis; type: ADME, Microsome; conditions: read-out: Stability
NCI-H2228 [21] = test: Antitumor activity against human NCI-H2228 cells xenografted in BALB/c nude mouse assessed as tumor regression at 25 mg/kg, IG administered every 2 days for 4 times; type: functional, organism-based; conditions: time 8.0 day
NCI-H2228 [22] = test: Inhibition of colony formation in human NCI-H2228 cells assessed as reduction in colony area at 50 nM incubated for 3 day by crystal violet staining based assay; type: functional; conditions: NCI-H2228, 72 h
NCI-H2228 [23] = test: Induction of apoptosis in human NCI-H2228 cells assessed as early apoptotic cells at 25 nM incubated for 48 hrs by AnnexinV-FITC/propidium iodide staining based flow cytometry analysis (reference value: 2.45 %); type: functional
A549 = test: Antiproliferative activity against EGFR positive human A549 cells assessed as inhibition of cell growth incubated for 72 hrs by MTT assay; type: functional, cell-based; conditions: A549, 72 h
[24] = Metabolic stability in Sprague-Dawley rat liver microsomes assessed as parent compound remaining preincubated for 5 mins in the presence of NADPH followed by microsomal addition and measured upto 60 mins by HPLC analysis; type: ADME, Microsome; conditions: time < 65 min, read-out: Stability
NCI-H2228 [25] = test: Induction of cell cycle arrest in human NCI-H2228 cells assessed as decrease in S phase cells at 25 nM incubated for 48 hrs by PI/RNase staining based flow cytometry analysis (reference value: 34.90 %); type: functional; design: scale not given: the % may be the effect or the level left
HCT-116 = test: cells; conditions: Homo sapiens, HCT-116, 72 h
Description: Antiproliferative activity against human HCT-116 cells assessed as inhibition of cell growth incubated for 72 hrs by MTT assay

NCI-H2228 [26] = test: Induction of apoptosis in human NCI-H2228 cells assessed as necrotic cells at 25 nM incubated for 48 hrs by AnnexinV-FITC/propidium iodide staining based flow cytometry analysis (reference value: 0.55 %); type: functional
[27] = AUC (0 to t) in Sprague-Dawley rat at 10 mg/kg, po by LC-MS/MS analysis; type: ADME, organism-based; design: dose 10 mg/kg, route po; conditions: in vivo
BaF3 = test: Antiproliferative activity IL3 […] Ba/F3 cells assessed as inhibition of cell growth incubated for 72 hrs by MTT assay; type: functional, cell-based; conditions: Mus musculus, BaF3, 72 h
[28] = Half-life in Sprague-Dawley rat at 10 mg/kg, po by LC-MS/MS analysis; type: ADME, organism-based; conditions: in vivo
NCI-H2228 [29] = test: Induction of apoptosis in human NCI-H2228 cells assessed as orange red fluorescence at 25 to 100 nM incubated for 48 hrs by AO/EB staining based fluorescence microscopic analysis; type: functional, cell-based; conditions: dose 25-100 nM
NCI-H2228 [30] = test: Inhibition of colony formation in human NCI-H2228 cells assessed as reduction in colony area incubated for 3 day by crystal violet staining based assay; type: functional, cell-based; conditions: dose 25-100 nM, DDE = dose-dependent effect
NCI-H2228 [31] = test: Induction of apoptosis in human NCI-H2228 cells assessed as ruptured nuclei at 25 to 100 nM incubated for 48 hrs by Hoechst 33342 staining based fluorescence microscopic analysis; type: functional, cell-based; conditions: dose 25-100 nM
NCI-H2228 [32] = test: Antitumor activity against human NCI-H2228 cells xenografted in BALB/c nude mouse assessed as tumor growth inhibition at 50 mg/kg, IG administered every 2 days for 7 times relative to control; type: functional; conditions: NCI-H2228, po, 336 h, time 14 day, read-out: TGI

Question: With `CNC(=O)c1ccccc1Nc1nc(Nc2ccc3c(C(=O)N(C)C)c(C)[nH]c3c2)ncc1Cl` as the molecule, how does the Activity (NCI-H2228 [1]) read?
Answer: 10.5%

Question: What about the Activity (NCI-H2228 [2]) of the same molecule?
Answer: 53.03%

Question: What about the MRT [3] of the same molecule?
Answer: 6.6 h

Question: And the IC50 (PC-3)?
Answer: 1.38 µM

Question: What about the half-life at 10 µM [4] of the same molecule?
Answer: 0.603 h

Question: What about the Activity (NCI-H2228 [5]) of the same molecule?
Answer: 1.71%

Question: And the “Ratio IC50” value [6]?
Answer: 61

Question: What about the Vd [7] of the same molecule?
Answer: 7.9 L/kg

Question: What about the inhibition (NCI-H2228 [8]) of the same molecule?
Answer: Dde

Question: And the inhibition [9]?
Answer: Dde

Question: What about the IC50 [10] of the same molecule?
Answer: 0.021 µM

Question: What about the IC50 (MDA-MB-231) of the same molecule?
Answer: 1.88 µM

Question: And the AUC(0-inf) [11]?
Answer: 922 ng·h/mL

Question: What about the Cmax [12] of the same molecule?
Answer: 346 ng/mL

Question: What about the inhibition [13] of the same molecule?
Answer: Dde

Question: And the inhibition [14]?
Answer: Dde

Question: And the IC50 at 72 h [15]?
Answer: > 10 µM

Question: And the Activity (NCI-H2228 [16])?
Answer: Active

Question: And the MRT [17]?
Answer: 3.5 h

Question: What about the inhibition (NCI-H2228 [18]) of the same molecule?
Answer: Tde

Question: What about the Activity (NCI-H2228 [19]) of the same molecule?
Answer: 16.5%

Question: What about the remaining at 1 h [20] of the same molecule?
Answer: 90%

Question: And the Activity (NCI-H2228 [21])?
Answer: Active

Question: What about the inhibition at 0.05 µM (NCI-H2228 [22]) of the same molecule?
Answer: 50%

Question: And the Activity (NCI-H2228 [23])?
Answer: 3.73%

Question: What about the IC50 (A549) of the same molecule?
Answer: 2.39 µM

Question: What about the remaining at 1 h [24] of the same molecule?
Answer: 29.7%

Question: What about the Activity (NCI-H2228 [25]) of the same molecule?
Answer: 34.73%

Question: And the IC50 (HCT-116)?
Answer: 1.34 µM

Question: And the Activity (NCI-H2228 [26])?
Answer: 1.68%

Question: What about the AUC(0-t) [27] of the same molecule?
Answer: 1720 ng·h/mL

Question: And the IC50 (BaF3)?
Answer: > 1 µM

Question: And the half-life [28]?
Answer: 4.1 h

Question: What about the Activity (NCI-H2228 [29]) of the same molecule?
Answer: Active

Question: What about the inhibition (NCI-H2228 [30]) of the same molecule?
Answer: Dde

Question: What about the Activity (NCI-H2228 [31]) of the same molecule?
Answer: Active

Question: And the inhibition in vivo at 50 mg/kg (NCI-H2228 [32])?
Answer: 93.5%
